The values below are quoted from earlier work in patent US20250339398A1, “TREATMENT OF SLEEP DISTRUBANCES IN AUTISM SPECTRUM DISORDER PATIENTS” (Vanda Pharmaceuticals Inc., priority 2021, published 2025).

The conditions of data set [1]: previous clinical studies in healthy volunteers, primary insomnia, Non-24, pediatric SMS.
Data set [2] has as its target T1, MT2 receptor (Homo sapiens, UniProt P49286).
T1 sequence (P49286 1-362): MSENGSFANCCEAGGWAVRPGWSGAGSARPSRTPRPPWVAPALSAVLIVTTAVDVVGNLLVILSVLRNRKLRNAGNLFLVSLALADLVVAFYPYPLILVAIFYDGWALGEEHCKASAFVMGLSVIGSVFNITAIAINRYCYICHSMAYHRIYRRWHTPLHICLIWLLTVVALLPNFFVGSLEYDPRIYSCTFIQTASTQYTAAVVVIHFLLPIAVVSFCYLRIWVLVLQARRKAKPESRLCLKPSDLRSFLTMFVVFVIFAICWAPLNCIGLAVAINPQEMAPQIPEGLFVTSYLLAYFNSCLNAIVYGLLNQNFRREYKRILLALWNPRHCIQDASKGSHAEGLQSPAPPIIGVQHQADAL
To be noted: MT2 receptor versus MT1 receptor.

As to `CCC(=O)NC[C@@H]1C[C@H]1c1cccc2c1CCO2` [Tasimelteon, tasimelteon], the safety and tolerability result in data set [1] was “safe and well-tolerated”. The “affinity for the MT2 receptor relative to the MT1 receptor” value in data set [2] was “greater affinity for the MT2 receptor than the MT1 receptor”. For the same compound, the linearity of pharmacokinetics result (doses ranging from 3 mg to 300 mg) was “linear”. Also, the absolute bioavailability (in vivo) is 38%.
